Experimental data as given in patent US10428045B2, “Benzazepine compounds, conjugates, and uses thereof” (Silverback Therapeutics, Inc., priority 2017, dated 2019).
Counter-ions that a name gives are not always drawn.

The compounds below were run on Human peripheral blood mononuclear cells (PBMC) (assay: PBMC screening assay, TNF-α in supernatant). Settings: TNF-α in supernatant of human PBMC, 24 hours, ELISA or HTRF.
Assay type: cell-based
Protocol: Human peripheral blood mononuclear cells (PBMC) were obtained from BenTek, frozen at 25×10^6 cell/mL in 10% DMSO (Sigma) prepared in fetal bovine serum (Gibco) and stored in liquid nitrogen. For culture PBMC were thawed quickly in a 37° C. water bath and diluted into pre-warmed RPMI 1640 (Lonza) supplemented with 10% fetal bovine serum, 2 mM glutamine, 50 μg/mL penicillin, 50 U/mL streptomycin (all from Gibco) and centrifuged for 5 minutes at 500×g. PBMC were suspended into the growth media described above and cultured at a concentration of 1×10^6 cells per mL at 37° C. in a 5% CO2 incubator.
PBMC were thawed, suspended at a concentration of 1×10^6 cell/mL in growth media and 200 μL was aliquoted into each well of a 96-well plate for a total of 0.2×10^6 cells per well. PBMC were incubated for 16-18 hours at 37° C. in a 5% CO2 humidified incubator. The following day PBMC plates were centrifuged at 500×g for 5 minutes and the growth media was removed. 150 μL of twelve concentrations ranging from 1000 to 0.000238 nM of small molecules prepared in growth media were added to PBMC in duplicate and incubated for 24 hours at 37° C. in a 5% CO2 incubator. Prior to supernatant harvest, cells were spun at 500×g for 5 minutes to remove cell debris. TNF-α activity was assessed in the supernatant by ELISA (eBioscience) or HTRF (CisBio) per the manufacturer's instructions. Optical density at 450 nm and 570 nm (ELISA) or luminescence (HTRF) was analyzed using an Envision (Perkin Elmer) plate reader, as shown in Table 5.

Compound	EC50 [nM]
CCCN(CCC)C(=O)C1=Cc2ccc(C(=O)Nc3ccc4c(c3)NCCC4)cc2N=C(N)C1 [Compound 1.1, 2-amino-N^4,N^4-dipropyl-N^8-(1,2,3,4-tetrahydroquinolin-7-yl)-3H-benzo[b]azepine-4,8-dicarboxamide]	< 500
CCCN(CCC)C(=O)C1=Cc2ccc(C(=O)Nc3cccc(C(C)=O)c3)cc2N=C(N)C1 [Compound 1.2, N^8-(3-acetylphenyl)-2-amino-N^4,N^4-dipropyl-3H-benzo[b]azepine-4,8-dicarboxamide]	< 500
CCCN(CCC)C(=O)C1=Cc2ccc(C(=O)NCc3cccnc3)cc2N=C(N)C1 [Compound 1.3, 2-amino-N^4,N^4-dipropyl-N^8-(pyridin-3-ylmethyl)-3H-benzo[b]azepine-4,8-dicarboxamide HCl salt]	< 500
CCCN(CCC)C(=O)C1=Cc2ccc(C(=O)Nc3ccc4c(c3)C(=O)CCC4)cc2N=C(N)C1 [Compound 1.4, 2-amino-N^8-(8-oxo-5,6,7,8-tetrahydronaphthalen-2-yl)-N^4,N^4-dipropyl-3H-benzo[b]azepine-4,8-dicarboxamide trifluoroacetate salt]	< 500
CCCN(CCC)C(=O)C1=Cc2ccc(C(=O)Nc3ccc4c(c3)CCCC4=O)cc2N=C(N)C1 [Compound 1.5, 2-amino-N^8-(5-oxo-5,6,7,8-tetrahydronaphthalen-2-yl)-N^4,N^4-dipropyl-3H-benzo[b]azepine-4,8-dicarboxamide trifluoroacetate salt]	< 500
CCCN(CCC)C(=O)C1=Cc2ccc(C(=O)Nc3ccc4c(c3)C(O)CCC4)cc2N=C(N)C1 (stereo not shown) [Compound 1.7, 2-amino-N^8-(8-hydroxy-5,6,7,8-tetrahydronaphthalen-2-yl)-N4,N4-dipropyl-3H-benzo[b]azepine-4,8-dicarboxamide trifluoroacetate salt]	< 500
CCCN(CCC)C(=O)C1=Cc2ccc(C(=O)Nc3ccc4c(c3)CCCN4)cc2N=C(N)C1 [Compound 1.12, 2-amino-N^4,N^4-dipropyl-N^8-(1,2,3,4-tetrahydroquinolin-6-yl)-3H-benzo[b]azepine-4,8-dicarboxamide trifluoroacetate salt]	< 500
CCCN(CCC)C(=O)C1=Cc2ccc(C(=O)Nc3ccc4c(c3)CCNC4)cc2N=C(N)C1 [Compound 1.13, 2-amino-N^4,N^4-dipropyl-N^8-(1,2,3,4-tetrahydroisoquinolin-6-yl)-3H-benzo[b]azepine-4,8-dicarboxamide trifluoroacetate salt]	< 500
CCCN(CCC)C(=O)C1=Cc2ccc(C(=O)Nc3ccc4c(c3)CNCC4)cc2N=C(N)C1 [Compound 1.14, 2-amino-N^4,N^4-dipropyl-N^8-(1,2,3,4-tetrahydro-isoquinolin-7-yl)-3H-benzo[b]azepine-4,8-dicarboxamide trifluoroacetate salt]	< 500
CCCN(CCC)C(=O)C1=Cc2ccc(C(=O)N[C@@H](C)c3ccccc3)cc2N=C(N)C1 [Compound 1.21, (S)-2-amino-N^8-(1-phenylethyl)-N^4,N^4-dipropyl-3H-benzo[b]azepine-4,8-dicarboxamide trifluoroacetate salt]	< 500
CCCN(CCC)C(=O)C1=Cc2ccc(C(=O)N[C@H](C)c3ccccc3)cc2N=C(N)C1 [Compound 1.22, (R)-2-amino-N^8-(1-phenylethyl)-N^4,N^4-dipropyl-3H-benzo[b]azepine-4,8-dicarboxamide trifluoroacetate salt]	< 500
CCCN(CCC)C(=O)C1=Cc2ccc(C(=O)NC3CCc4ccccc43)cc2N=C(N)C1 (stereo not shown) [Compound 1.23, 2-amino-N^8-(2,3-dihydro-1H-inden-1-yl)-N^4,N^4-dipropyl-3H-benzo[b]azepine-4,8-dicarboxamide trifluoroacetate salt]	< 500
CCCN(CCC)C(=O)C1=Cc2ccc(C(=O)N3CCc4ccccc4C3)cc2N=C(N)C1 [Compound 1.24, 2-amino-N,N-dipropyl-8-(1,2,3,4-tetrahydroisoquinoline-2-carbonyl)-3H-benzo[b]azepine-4-carboxamide trifluoroacetate salt]	< 500
CCCN(CCC)C(=O)C1=Cc2ccc(C(=O)Nc3ccc(C(C)=O)cc3)cc2N=C(N)C1 [Compound 1.25, N^8-(4-acetylphenyl)-2-amino-N^4,N^4-dipropyl-3H-benzo[b]azepine-4,8-dicarboxamide trifluoroacetate salt]	< 500
CCCN(CCC)C(=O)C1=Cc2ccc(C(=O)NCCNC(=O)OCc3ccccc3)cc2N=C(N)C1 [Compound 1.26, benzyl (2-(2-amino-4-(dipropylcarbamoyl)-3H-benzo[b]azepine-8-carboxamido)ethyl)carbamate trifluoroacetate salt]	< 500
CCCN(CCC)C(=O)C1=Cc2ccc(C(=O)Nc3cccc(C(=O)NCCNC(=O)OCc4ccccc4)c3)cc2N=C(N)C1 [Compound 1.27, benzyl (2-(3-(2-amino-4-(dipropylcarbamoyl)-3H-benzo[b]azepine-8-carboxamido)benzamido)ethyl)carbamate]	< 500
CCCN(CCC)C(=O)C1=Cc2ccc(C(=O)N[C@H]3C[C@@H]3c3ccccc3)cc2N=C(N)C1 [Compound 1.28, 2-amino-N^8-((1S,2R)-2-phenylcyclopropyl)-N^4,N^4-dipropyl-3H-benzo[b]azepine-4,8-dicarboxamide trifluoroacetate salt]	< 500
CCCN(CCC)C(=O)C1=Cc2ccc(C(=O)Nc3ccc4c(c3)CCN(C(=O)OCc3ccccc3)C4)cc2N=C(N)C1 [Compound 1.29, benzyl 6-(2-amino-4-(dipropylcarbamoyl)-3H-benzo[b]azepine-8-carboxamido)-3,4-dihydroisoquinoline-2(1H)-carboxylate]	< 500
CCCN(CCC)C(=O)C1=Cc2ccc(C(=O)Nc3cccc(CNC(=O)CCc4ccccc4)c3)cc2N=C(N)C1 [Compound 1.31, 2-amino-N^8-(3-((3-phenylpropanamido)methyl)phenyl)-N^4,N^4-dipropyl-3H-benzo[b]azepine-4,8-dicarboxamide bis TFA salt]	< 500
CCCN(CCC)C(=O)C1=Cc2ccc(C(=O)Nc3cncc(CNC(=O)NCc4ccccc4)c3)cc2N=C(N)C1 [Compound 1.32, 2-amino-N^8-(5-((3-benzylureido)methyl)pyridin-3-yl)-N^4,N^4-dipropyl-3H-benzo[b]azepine-4,8-dicarboxamide bis TFA salt]	< 500
CCCN(CCC)C(=O)C1=Cc2ccc(C(=O)Nc3cncc(CNC(=O)C4CCc5ccccc5N4)c3)cc2N=C(N)C1 (stereo not shown) [Compound 1.33, 2-amino-N^4,N^4-dipropyl-N^8-(5-((1,2,3,4-tetrahydroquinoline-2-carboxamido)methyl)pyridin-yl)-3H-benzo[b]azepine-4,8-dicarboxamide]	< 500
CCCN(CCC)C(=O)C1=Cc2ccc(C(=O)Nc3cncc(CNC(=O)C4Cc5ccccc5CN4)c3)cc2N=C(N)C1 (stereo not shown) [Compound 1.34, 2-amino-N^4,N^4-dipropyl-N^8-(5-((1,2,3,4-tetrahyroisoquinoline-3-carboxamido)-methyl)pyridin-3-yl)-3H-benzo[b]azepine-4,8-dicarboxamide]	< 500
CCCN(CCC)C(=O)C1=Cc2ccc(C(=O)Nc3cncc(CNC(=O)[C@@H](N)Cc4ccccc4)c3)cc2N=C(N)C1 [Compound 1.35, (S)-2-amino-N^8-(5-((2-amino-3-phenylpropanamido)methyl)pyridin-3-yl)-N^4,N^4-dipropyl-3H-benzo[b]azepine-4,8-dicarboxamide]	< 500
CCCN(CCC)C(=O)C1=Cc2ccc(C(=O)Nc3cncc(CNC(=O)[C@H](N)Cc4ccccc4)c3)cc2N=C(N)C1 [Compound 1.36, (R)-2-amino-N^8-(5-((2-amino-3-phenyl-propanamido)-methyl)pyridine-3-yl)-N^4,N^4-dipropyl-3H-benzo[b]azepine-4,8-dicarboxamide]	< 500
CCCN(CCC)C(=O)C1=Cc2ccc(C(=O)Nc3cncc(CNC(=O)Oc4ccccc4)c3)cc2N=C(N)C1 [Compound 1.37, Phenyl ((5-(2-amino-4-(dipropylcarbamoyl)-3H-benzo[b]azepine-8-carboxamido)pyridin-3-yl)methyl)carbamate]	< 500
CCCN(CCC)C(=O)C1=Cc2ccc(C(=O)Nc3cncc(CNC(=O)CC(N)c4ccccc4)c3)cc2N=C(N)C1 (stereo not shown) [Compound 1.38, 2-amino-N^8-(5-((3-amino-3-phenyl-propanamido)methyl)-pyridin-3-yl)-N^4,N^4-dipropyl-3H-benzo[b]azepine-4,8-dicarboxamide]	< 500
CCCN(CCC)C(=O)C1=Cc2ccc(C(=O)Nc3cnc4c(c3)C(N)CCC4)cc2N=C(N)C1 (stereo not shown) [Compound 1.39, 2-amino-N^8-(5-amino-5,6,7,8-tetrahydro-quinolin-3-yl)-N^4,N^4-dipropyl-3H-benzo-[b]azepine-4,8-dicarbox-amide]	< 500
CCCN(CCC)C(=O)C1=Cc2ccc(C(=O)NCC3OB(O)c4ccccc43)cc2N=C(N)C1 (stereo not shown) [Compound 1.47, 2-amino-N^8-((1-hydroxy-1,3-dihydro-benzo[c][1,2]oxaborol-3-yl)methyl)-N4,N4-dipropyl-3H-benzo[b]azepine-4,8-dicarboxamide]	500 to 1000
